The text below walks through data of patent publication US20230083973A1, “SUBSTITUTED CYCLOPROPYL-2,2'-BIP[…], ANALOGUES THEREOF, AND METHODS USING SAME” (priority 2019, published 2023).

In the experiment the test system is HBsAg. Description: HBsAg assay: inhibition of HBsAg in HepG2.2.15 cells (chemiluminescence immunoassay of supernatant). It counts as cell-based, hepatitis B virus. The following applies: HBsAg in supernatant at day 6 after exposure to compound, 0.5% DMSO. The procedure, abridged: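 Secreted HBsAg quantified by CLIA in day-6 supernatants of HepG2.2.15 cultures given compound dilutions at 0.5% final DMSO, with one compound/medium replenishment after 2–3 days. Dose-response fits gave EC50 (50% inhibition); viability checked separately by CellTiter-Glo.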

Setting [1] is: read-out: sAg EC50, HepG2.2.15 cells.
The mark [2] stands for this setting: Hepatitis B virus, HepG2.2.15, 144 h, read-out: sAg EC50, HepG2.2.15 cells.

Read-outs that look alike come from different tables or passages of the source.

As for `CN1CCN(c2cc(C3CC3c3cnc(-c4ncccn4)nc3)ccc2F)CC1` (single isomer, unassigned) [Example 187, trans-5-(2-(4-Fluoro-3-(4-methylpiperazin-1-yl)phenyl)cyclopropyl)-2,2′-bipyrimidine], the 50% effective concentration (EC50) under setting [1] is 15 µM. With `OC1CN(c2cc(C3CC3c3cnc(-c4ncccn4)nc3)ccc2F)C1` (single isomer, unassigned) [Example 53, trans-1-(5-(2-([2,2′-Bipyrimidin]-5-yl)cyclopropyl)-2-fluorophenyl)azetidin-3-ol], the EC50 under setting [1] stood at 0.5 µM.

For `O[C@H]1CCN(c2cc(C3CC3c3cnc(-c4ncccn4)nc3)cc(F)c2F)C1` (single isomer, unassigned) [Example 107], the concentration for a half-maximal effect (EC50) under setting [1] is 0.021 µM. For `COc1cc(C2CC2c2cnc(-c3ncccn3)nc2)cc(Cl)c1Cl` (single isomer, unassigned) [Example 60, trans-5-(2-(3,4-Dichloro-5-methoxyphenyl)cyclopropyl)-2,2′-bipyrimidine], the half-maximal effective concentration (EC50) under setting [1] was found to be 0.25 µM.

For the compound `Fc1cc([C@@H]2C[C@H]2c2cnc(-c3ncccn3)nc2)cc(F)c1OC1CC2(COC2)C1` (relative stereo) [Example 242, trans-5-(2-(4-((2-Oxaspiro[3.3]heptan-6-yl)oxy)-3,5-difluorophenyl)cyclopropyl)-2,2′-bipyrimidine], the EC50 under setting [2] came out at 0.39 µM. With `COc1cc(C2CC2c2cnc(-c3ncccn3)nc2)cc(C)c1Cl` (single isomer, unassigned) [Example 58, trans-5-(2-(4-Chloro-3-methoxy-5-methylphenyl)cyclopropyl)-2,2′-bipyrimidine], the 50% effective concentration (EC50) under setting [1] came to 0.29 µM. Turning to `CO[C@H]1CCN(c2cc(C3CC3c3cnc(-c4ncccn4)nc3)ccc2F)C1` (single isomer, unassigned) [Example 67], the EC50 under setting [1] worked out at 0.18 µM. On to `COc1cnn(-c2cc(C3CC3c3cnc(-c4ncccn4)nc3)cc(F)c2F)c1` (single isomer, unassigned) [Example 252, trans-5-(2-(3,4-Difluoro-5-(4-methoxy-1H-pyrazol-1-yl)phenyl)cyclopropyl)-2,2′-bipyrimidine], for which the EC50 under setting [1] was 0.014 µM. Still for that read-out and setting: as for `CS(=O)(=O)N1CCN(c2cc(C3CC3c3cnc(-c4ncccn4)nc3)ccc2F)CC1` (single isomer, unassigned) [Example 42, trans-5-(2-(4-Fluoro-3-(4-(methylsulfonyl)piperazin-1-yl)phenyl)cyclopropyl)-2,2′-bipyrimidine], the figure is 0.22 µM.

On to `COCCCn1cnc2cc([C@@H]3C[C@H]3c3cnc(-c4ncccn4)nc3)cc(F)c21` (relative stereo) [Example 273, trans-5-(2-([2,2′-Bipyrimidin]-5-yl)cyclopropyl)-7-fluoro-1-(3-methoxypropyl)-1H-benzo[d]imidazole], for which the EC50 under setting [2] was found to be 0.043 µM. The same measure, in the same setting: as for `Fc1ccc(C2CC2c2ccnc(-c3ncccn3)n2)cc1F` (single isomer, unassigned) [Example 5, trans-4-(2-(3,4-Difluorophenyl)cyclopropyl)-2,2′-bipyrimidine], the figure is 5 µM. For `CO[C@@H]1CCN(c2cc(C3CC3c3cnc(-c4ncccn4)nc3)cc(F)c2F)C1` (single isomer, unassigned) [Example 97], the EC50 under setting [1] is 0.014 µM.

Turning to `COc1c(Cl)ccc(C2CC2c2cnc(-c3ncccn3)nc2)c1F` (single isomer, unassigned) [Example 55, trans-5-(2-(4-Chloro-2-fluoro-3-methoxyphenyl)cyclopropyl)-2,2′-bipyrimidine], the 50% effective concentration (EC50) under setting [1] was determined as 1 µM. On to `COc1cc([C@@H]2C[C@H]2c2cnc(-c3cnccn3)nc2)cc(F)c1F` (relative stereo) [Example 178, trans-5-(2-(3,4-Difluoro-5-methoxyphenyl)cyclopropyl)-2-(pyrazin-2-yl)pyrimidine], for which the half-maximal effective concentration (EC50) under setting [2] was 0.46 µM. Still for that read-out and setting: next, `Fc1cc(C2CC2c2cnc(-c3ncccn3)nc2)cc(N2CCCC2)c1F` (single isomer, unassigned) [Example 92, trans-5-(2-(3,4-Difluoro-5-(pyrrolidin-1-yl)phenyl)cyclopropyl)-2,2′-bipyrimidine]: 0.024 µM. `Cc1nc2cc([C@@H]3C[C@H]3c3cnc(-c4ncccn4)nc3)ccc2s1` (relative stereo) [Example 278, trans-5-(2-([2,2′-Bipyrimidin]-5-yl)cyclopropyl)-2-methylbenzo[d]thiazole]: the concentration for a half-maximal effect (EC50) under setting [2] worked out at 0.056 µM. Take `Fc1cn(-c2cc(C3CC3c3cnc(-c4ncccn4)nc3)cc(F)c2F)cc1F` (single isomer, unassigned) [Example 257, trans-5-(2-(3-(3,4-Difluoro-1H-pyrrol-1-yl)-4,5-difluorophenyl)cyclopropyl)-2,2′-bipyrimidine]: the EC50 under setting [1] was 0.14 µM. Take `COCCOC1CN(c2cc([C@@H]3C[C@H]3c3cnc(-c4ncccn4)nc3)cc(F)c2F)C1` (relative stereo) [Example 212, trans-5-(2-(3,4-Difluoro-5-(3-(2-methoxyethoxy)azetidin-1-yl)phenyl)cyclopropyl)-2,2′-bipyrimidine]: the concentration for a half-maximal effect (EC50) under setting [2] was found to be 0.03 µM. Consider `CCc1cc(F)c(OC)cc1C1CC1c1cnc(-c2ncccn2)nc1` (single isomer, unassigned) [Example 35, trans-5-(2-(2-Ethyl-4-fluoro-5-methoxyphenyl)cyclopropyl)-2,2′-bipyrimidine], for which the EC50 under setting [2] amounted to 0.55 µM.

Take `CO[C@@H]1CCN(c2cc(C3CC3c3cnc(-c4ncccn4)nc3)ccc2F)C1` (single isomer, unassigned) [Example 95]: under setting [1], the EC50 was found to be 0.17 µM. As to `Oc1cnn(-c2cc(C3CC3c3cnc(-c4ncccn4)nc3)cc(F)c2F)c1` (single isomer, unassigned) [Example 260, trans-1-(5-(2-([2,2′-Bipyrimidin]-5-yl)cyclopropyl)-2,3-difluorophenyl)-1H-pyrazol-4-ol], under setting [1], the EC50 was found to be 0.67 µM.

`OCc1cnn(-c2cc([C@@H]3C[C@H]3c3cnc(-c4ncccn4)nc3)cc(F)c2F)c1` (relative stereo) [Example 234, trans-(1-(5-(2-([2,2′-Bipyrimidin]-5-yl)cyclopropyl)-2,3-difluorophenyl)-1H-pyrazol-4-yl)methanol]: the concentration giving a half-maximal response (EC50) under setting [2] is 0.14 µM. As for `COc1cc(C2CC2c2cnc(-c3ncccn3)nc2)cc(F)c1F` (single isomer, unassigned) [Example 85, trans-5-(2-(3,4-Difluoro-5-methoxyphenyl)cyclopropyl)-2,2′-bipyrimidine], the EC50 under setting [1] is 0.029 µM. For `COc1cc(OC(F)(F)F)cc([C@@H]2C[C@H]2c2cnc(-c3ncccn3)nc2)c1` (relative stereo) [Example 164, trans-5-(2-(3-Methoxy-5-(trifluoromethoxy)phenyl)cyclopropyl)-2,2′-bipyrimidine], the concentration giving a half-maximal response (EC50) under setting [2] stood at 0.48 µM. As for `CC(=O)N1CC[C@@H](Nc2cc(C3CC3c3cnc(-c4ncccn4)nc3)cc(F)c2F)C1` (single isomer, unassigned) [Example 226], the EC50 under setting [1] was found to be 1 µM. As for `COc1cc(C2CC2c2cnc(-c3ncccn3)nc2)c(Cl)cc1Cl` (single isomer, unassigned) [Example 89, trans-5-(2-(2,4-Dichloro-5-methoxyphenyl)cyclopropyl)-2,2′-bipyrimidine], the concentration giving a half-maximal response (EC50) under setting [1] stood at 0.61 µM. On the same count and under the same terms, next, `COc1c(Cl)ccc(C2CC2c2cnc(-c3ncccn3)nc2)c1OC` (single isomer, unassigned) [Example 115, trans-5-(2-(4-Chloro-2,3-dimethoxyphenyl)cyclopropyl)-2,2′-bipyrimidine]: 0.32 µM; `Fc1cc(C2CC2c2cnc(-c3ncccn3)nc2)cc(N2CCC3(COC3)C2)c1F` (single isomer, unassigned) [Example 223, trans-6-(5-(2-([2,2′-Bipyrimidin]-5-yl)cyclopropyl)-2,3-difluorophenyl)-2-oxa-6-azaspiro[3.4]octane]: 0.01 µM. As to `O[C@@H]1CCN(c2cc(C3CC3c3cnc(-c4ncccn4)nc3)cc(F)c2F)C1` (single isomer, unassigned) [Example 104], under setting [2], the EC50 amounted to 0.078 µM. For the compound `COc1cc(C2CC2c2cnc(-c3ncccn3)nc2)c(F)cc1Cl` (single isomer, unassigned) [Example 87, trans-5-(2-(4-Chloro-2-fluoro-5-methoxyphenyl)cyclopropyl)-2,2′-bipyrimidine], the 50% effective concentration (EC50) under setting [1] came to 0.14 µM.

Turning to `Fc1ccc(C2CC2c2cnc(-c3ncccn3)nc2)cc1Cl` (single isomer, unassigned) [Example 30, trans-5-(2-(3-Chloro-4-fluorophenyl)cyclopropyl)-2,2′-bipyrimidine], the EC50 under setting [1] came to 0.08 µM. In the case of `Fc1ccc(C2CC2c2cnc(-c3ncccn3)nc2)cc1Cl` (single isomer, unassigned) [Example 29, trans-5-(2-(3-Chloro-4-fluorophenyl)cyclopropyl)-2,2′-bipyrimidine], the EC50 under setting [1] worked out at 0.78 µM. On the same count and under the same terms, next, `COc1cc(C2CC2c2cnc(-c3ncccn3)nc2)ccc1Cl` (single isomer, unassigned) [Example 33, trans-5-(2-(4-Chloro-3-methoxyphenyl)cyclopropyl)-2,2′-bipyrimidine]: 0.031 µM; `Fc1cc(C2CC2c2cnc(-c3ncccn3)nc2)cc(OCC2CC2)c1F` (single isomer, unassigned) [Example 128, trans-5-(2-(3-(Cyclopropylmethoxy)-4,5-difluorophenyl)cyclopropyl)-2,2′-bipyrimidine]: 0.42 µM. Same read-out and setting: next, `CCc1nc(-c2ncccn2)ncc1C1CC1c1ccc(F)c(OC)c1` (single isomer, unassigned) [Example 76, trans-4-Ethyl-5-(2-(4-fluoro-3-methoxyphenyl)cyclopropyl)-2,2′-bipyrimidine]: 2 µM; `COc1cc(C2CC2c2ccc(-c3ncccn3)nn2)ccc1F` (single isomer, unassigned) [Example 191, trans-3-(2-(4-Fluoro-3-methoxyphenyl)cyclopropyl)-6-(pyrimidin-2-yl)pyridazine]: 2 µM.
